Among the data in PMC13011345, “Computational and experimental identification of potential neutralizing peptides derived from human ACE2 against SARS-CoV-2 infection” (Journal of Virology, 2026) are IC50 values, retold here.

The subject of this assay is pseudotyped SARS-CoV-2 particle (VSV-SARS-CoV-2-S virus, Wuhan-Hu-1 spike) infecting BHK21-hACE2 cells. The settings on record: 1 h.

Ends that are not written are not given here.

Sequence QKLFNMLRLGKS [ACE552–563] showed a concentration for half-maximal inhibition (IC50) of 12.5 nM. Regarding AWDLGKGDFRIL [ACE348–359], it took 31.2 nM to reach half-maximal inhibition (IC50). Under LPNMTQGFWENSML [ACE320–333] stands 43.9 nM; under HIQYDMAYAAQPFLLRNG [ACE378–395], 3.8 nM.

One may read the IC50 as the midpoint of a concentration-inhibition curve. A lower IC50 goes with inhibition by little substance.
